The values below come from article PMC9076199 (RSC Advances, 2019).

Experiment [1] concerns the target T1, human carboxylesterase 2 (CES2) (Homo sapiens, UniProt O00748).
T1 sequence (O00748 27-559): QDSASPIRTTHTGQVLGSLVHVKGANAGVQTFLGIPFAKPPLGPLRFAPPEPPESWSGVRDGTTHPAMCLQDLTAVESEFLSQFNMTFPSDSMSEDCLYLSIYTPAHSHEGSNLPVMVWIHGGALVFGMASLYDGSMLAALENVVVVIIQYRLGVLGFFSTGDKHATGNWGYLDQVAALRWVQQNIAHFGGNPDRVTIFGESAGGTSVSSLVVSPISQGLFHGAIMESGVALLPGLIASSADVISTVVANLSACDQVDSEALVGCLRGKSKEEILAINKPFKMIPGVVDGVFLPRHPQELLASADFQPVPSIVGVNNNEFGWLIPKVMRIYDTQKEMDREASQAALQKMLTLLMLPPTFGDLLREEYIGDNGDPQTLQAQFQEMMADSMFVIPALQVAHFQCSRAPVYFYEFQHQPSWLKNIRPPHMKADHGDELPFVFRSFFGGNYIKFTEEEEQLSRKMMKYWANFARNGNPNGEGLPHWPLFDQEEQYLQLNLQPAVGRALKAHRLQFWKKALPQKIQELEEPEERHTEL
The experiment is described as follows: Inhibition of CES2-mediated FD. The following applies: for selectivity for CES2 over CES1 (in words): CES2 versus CES1 IC50. It counts as biochemical.

Experiment [2] addresses T2, human carboxylesterase 1 (CES1) (Homo sapiens, UniProt P23141).
T2 sequence (P23141 18-567): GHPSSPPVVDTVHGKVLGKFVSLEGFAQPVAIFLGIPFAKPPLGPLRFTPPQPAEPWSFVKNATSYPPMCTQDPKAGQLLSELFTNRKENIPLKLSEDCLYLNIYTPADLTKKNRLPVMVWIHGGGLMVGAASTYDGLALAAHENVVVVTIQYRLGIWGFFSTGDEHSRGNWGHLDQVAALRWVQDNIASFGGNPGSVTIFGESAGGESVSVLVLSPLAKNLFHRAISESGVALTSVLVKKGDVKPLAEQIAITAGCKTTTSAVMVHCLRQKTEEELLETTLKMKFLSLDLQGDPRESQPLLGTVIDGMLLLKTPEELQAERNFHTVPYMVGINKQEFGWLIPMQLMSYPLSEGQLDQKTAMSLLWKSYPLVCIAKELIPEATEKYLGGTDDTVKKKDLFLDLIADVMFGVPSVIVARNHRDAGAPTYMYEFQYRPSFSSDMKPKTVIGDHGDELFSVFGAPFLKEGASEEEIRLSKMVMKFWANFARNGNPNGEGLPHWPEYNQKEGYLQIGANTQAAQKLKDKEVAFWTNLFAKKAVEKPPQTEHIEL
Kind of experiment: Inhibition of CES1-mediated DME. It counts as biochemical.

For the compound `Cc1ccccc1C(c1c(C)[nH]c2ccccc12)c1c(C)[nH]c2ccccc12` [4b], half-maximal inhibition in experiment [1] (IC50) was put at 0.56 ± 0.16 µM. For the compound `Cc1cccc(C(c2c(C)[nH]c3ccccc23)c2c(C)[nH]c3ccccc23)c1` [4c], the midpoint of inhibition in experiment [1], the IC50, lay at 0.34 ± 0.091 µM.

In turn, `Cc1ccc(C(c2c(C)[nH]c3ccccc23)c2c(C)[nH]c3ccccc23)cc1` [4d] gave an IC50 in experiment [1] of 0.28 ± 0.027 µM. Still for that read-out and setting: to `COc1ccccc1C(c1c(C)[nH]c2ccccc12)c1c(C)[nH]c2ccccc12` [4e] belongs 0.2 ± 0.044 µM; to `COc1cccc(C(c2c(C)[nH]c3ccccc23)c2c(C)[nH]c3ccccc23)c1` [4f], 1.28 ± 0.24 µM.

In the case of `COc1ccc(C(c2c(C)[nH]c3ccccc23)c2c(C)[nH]c3ccccc23)cc1` [4g], the half-maximal inhibitory concentration (IC50) is 0.15 ± 0.032 µM in experiment [1] and 2.9 ± 0.24 µM in experiment [2]. Besides, in experiment [1], the “selectivity for CES2 over CES1 (in words)” value is “good selectivity over CES1”. `Cc1[nH]c2ccccc2c1C(c1ccccc1Cl)c1c(C)[nH]c2ccccc12` [4h] registered an IC50 in experiment [1] of 0.57 ± 0.086 µM. Same read-out and setting: to `Cc1[nH]c2ccccc2c1C(c1cccc(Cl)c1)c1c(C)[nH]c2ccccc12` [4i] belongs 1.23 ± 0.37 µM; to `Cc1[nH]c2ccccc2c1C(c1ccc(Cl)cc1)c1c(C)[nH]c2ccccc12` [4j], 0.84 ± 0.23 µM; to `Cc1[nH]c2ccccc2c1C(c1ccccc1Br)c1c(C)[nH]c2ccccc12` [4k], 0.35 ± 0.091 µM. Still for that read-out and setting: as for `Cc1[nH]c2ccccc2c1C(c1cccc(Br)c1)c1c(C)[nH]c2ccccc12` [4l], the figure is 3.17 ± 0.81 µM; as for `Cc1[nH]c2ccccc2c1C(c1ccc(Br)cc1)c1c(C)[nH]c2ccccc12` [4m], 1.21 ± 0.28 µM. As for `Cc1[nH]c2ccccc2c1C(c1ccccc1[N+](=O)[O-])c1c(C)[nH]c2ccccc12` [4n], the concentration for half-maximal inhibition (IC50) in experiment [1] came to 0.19 ± 0.045 µM; in experiment [2], 3.68 ± 0.43 µM. Besides, the “selectivity for CES2 over CES1 (in words)” value in experiment [1] is recorded as “good selectivity over CES1”. In experiment [1], `Cc1[nH]c2ccccc2c1C(c1cccc([N+](=O)[O-])c1)c1c(C)[nH]c2ccccc12` [4o] gave a half-maximal inhibitory concentration (IC50) of 0.35 ± 0.11 µM. On the same count and under the same terms, as for `Cc1[nH]c2ccccc2c1C(c1ccc([N+](=O)[O-])cc1)c1c(C)[nH]c2ccccc12` [4p], the figure is 1.22 ± 0.2 µM.
